Molecular target: Neuraminidase (Influenza A virus (A/Puerto Rico/8/1934(H1N1)), UniProt P03468)
Experiment: Inhibitory activity against influenza A virus sialidase

Row | SMILES | IC50
1 | CC(=O)N[C@@H]1[C@@H](N)C=C(C(=O)O)O[C@H]1c1nc(Cc2ccccc2)no1 | 99 µM
2 | CCCn1nc(Cc2ccccc2)nc1[C@@H]1OC(C(=O)OC(c2ccccc2)c2ccccc2)=C[C@H](NC(=O)OC(C)(C)C)[C@H]1NC(C)=O | 0.07 µM
3 | CC(=O)N[C@@H]1[C@@H](N)C=C(C(=O)O)O[C@H]1c1nc(-c2ccccc2)no1 | 14 µM
4 | CC(=O)N[C@@H]1[C@@H](N)C=C(C(=O)O)O[C@H]1c1nc(C)no1 | 23 µM
5 | CCCn1nc([C@@H]2OC(C(=O)OC(c3ccccc3)c3ccccc3)=C[C@H](NC(=O)OC(C)(C)C)[C@H]2NC(C)=O)nc1Cc1ccccc1 | 12 µM
6 | CC(=O)N[C@@H]1[C@@H](NC(=O)OC(C)(C)C)C=C(C(=O)OC(c2ccccc2)c2ccccc2)O[C@H]1c1nnc(Cc2ccccc2)[nH]1 | 87 µM
7 | CCCCc1nnc([C@@H]2OC(C(=O)O)=C[C@H](N)[C@H]2NC(C)=O)n1CCC | 0.33 µM
8 | CCCCc1noc([C@@H]2OC(C(=O)O)=C[C@H](N)[C@H]2NC(C)=O)n1 | 56 µM

Reference: ChEMBL document CHEMBL1152059, “Novel inhibitors of influenza sialidases related to zanamivir. Heterocyclic replacements of the glycerol sidechain” (Bioorg Med Chem Lett, 1997)
